The source made the active and inactive calls.
Columns and labels:
[1] = insulin promoter down-regulators in MIN6 cells, imaging, high-content screening, mouse beta cells (AID 1628); type: functional
[2] = cytotoxicity in MIN6 insulinoma cells, dose response, cytotoxicity control, cell-based, mouse insulinoma (AID 2122); type: functional;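 note: confirmatory high-throughput counterscreen run to flag cytotoxic compounds; mouse MIN-6 beta cells carrying an insulin promoter eGFP reporter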
[3] = HEp-2 cell cytotoxicity, dose response, cytotoxicity control for RSV inhibitor project, HTS (AID 2410); type: functional; settings: human respiratory syncytial virus
[4] = inhibitors of intracellular T. cruzi replication, confirmation, NIH3T3 host cells, beta-gal luminescence (AID 2044); type: functional, cell-based;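 note: intracellular parasites grown in NIH/3T3 mouse fibroblasts as host cells; luminescent beta-galactosidase reporter signal from transgenic T. cruzi replicating inside host cells; inhibitors lower the luminescence signal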
[5] = cytotoxicity toward NIH3T3 fibroblasts, dose response, counter-screen, cell-based, ATP luminescence, mouse fibroblasts (AID 2010); type: functional;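 note: cells exposed to compound for about 90 hours before reading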

Row | Structure (SMILES) | IC50 [1] | IC50 [2] | CC50 [3] | EC50 [4] | EC50 [5]
1 | Cc1ccc(-c2noc(CCC(=O)NCCCN3CCN(c4ccc(F)cc4)CC3)n2)cc1 | 3.28 µM (active) | 3.21 µM (active) | – | – | –
2 | N=c1ccn(Cc2cccc(Cl)c2)cc1 | 3.15 µM (active) | 3.41 µM (active) | – | – | –
3 | COc1cc(-c2nn3c(-c4ccccc4)nnc3s2)cc(OC)c1OC | 3.22 µM (active) | > 16 µM (inactive) | – | – | –
4 | O=C(NCc1cn(-c2ccccc2)nc1-c1ccc(F)cc1)c1cccc([N+](=O)[O-])c1 | 2.91 µM (active) | 4.31 µM (active) | 28.1 µM (active) | 0.805 µM (active) | > 60 µM (not active)
